From patent publication US20130287700A1, “COMPOUNDS FOR THE DIAGNOSIS OF NEURODEGENERATIVE DISORDERS ON THE OLFACTORY EPITHELIUM” (KLINIKUM DARMSTADT GMBH, priority 2010, published 2013)
Entries after “also recorded” stand apart in the source; their conditions may differ.

The molecules below were run on Aβ plaque (assay: Staining of tissue sections with the dyes, fluorescence microscopy: Aβ deposits in brain/hippocampus). Conditions: hippocampus, AD+, DAPI filter.
Type: binding, human
Protocol: (§1) Tissue samples were fixed in 10% buffered formalin solution and embedded in paraffin. Slices of 4 μm thickness were prepared using a microtome and mounted on a slide in a water bath. Deparaffinization was carried out according to the following steps:
(§2) Xylene 15 min, 100% ethanol 10 min, 96% ethanol 10 min, 70% ethanol 10 min and storage in water until staining.
(§3) Staining with dyes of this invention was subsequently performed according to the following procedure steps:
(§4) Dyes of the present invention were applied in 0.01-1% ethanolic or methanolic solution dropwise onto the tissue section (50-200 μL) and incubated in a moist, EtOH/MeOH saturated and light-protected chamber for 10 min.
(§5) In the case of poorly soluble substances, up to 10% DMSO were added and, if required, filtered through a syringe filter (0.45 μm pore size).
(§6) Samples were stained with dyes of the present invention as described in example 21 and subsequently investigated using a Zeiss Axioskop, ABO 100 Hg fluorescent lamp, camera: Leica DFC300FX. Depending on the respective dye used, either a FITC filter or a DAPI filter was utilized.

| SMILES | Structure stained by the dye |
| --- | --- |
| C(=C\c1cccc2ccccc12)/c1cc(/C=C/c2cccc3ccccc23)ncn1 [BSc4328, 4,6-Bis((E)-2-(naphthalene-1-yl)vinyl)pyrimidine] | Aβ plaque |
| CSc1nc(/C=C/c2ccc(N(C)C)cc2)cc(/C=C/c2ccc(N(C)C)cc2)n1 [BSc4097, 4,4′-(1E,1′E)-2,2′-(2-(methylthio)pyrimidine-4,6-diyl)bis(ethene-2,1-diyl)bis(N,N-dimethylaniline)] | Aβ plaque |
| CN(C)c1ccc(/C=C/c2cc(/C=C/c3ccc(N(C)C)cc3)ncn2)cc1 [BSc4090, 4-((1E)-2-(6-(4-(dimethylamino)styryl)pyrimidine-4-yl)vinyl)-N,N-dimethylbenzenamine] | Aβ plaque |
| CN(C)c1ccc(/C=C/c2cnc(/C=C/c3ccc(N(C)C)cc3)cn2)cc1 [BSc4352, 4,4′-(1E,1′E)-2,2′-(pyrazine-2,5-diyl)bis(ethene-2,1-diyl)bis(N,N-dimethylaniline)] | Aβ plaque |
| C(=N/Nc1ccc(-c2nc3ccccc3s2)cc1)/c1cccnc1 [BSc4337, (Z)-1-(4-(benzo[d]thiazol-2-yl)phenyl)-2-((pyridine-3-yl)methylene)hydrazine] | Aβ plaque |
| Cn1c2ccccc2c2cc(/C=N\Nc3ccc(-c4nc5ccccc5s4)cc3)ccc21 [BSc4342, (Z)-1-(4-(benzo[d]thiazol-2-yl)phenyl)-2-((9-methyl-9H-carbazol-3-yl)methylene)hydrazin] | Aβ plaque |
| O=C(NCc1cccc(F)c1)Nc1ccc2nonc2c1 [BSc4138, 1-(Benzo[c][1,2,5]oxadiazol-5-yl)-3-(3-fluorobenzyl)urea] | Aβ plaque |

Same assay, conditions: hippocampus, AD+, FITC filter

| SMILES | Structure stained by the dye |
| --- | --- |
| CN(C)c1ccc(/C=C/c2cc(/C=C/c3ccc(N(C)C)cc3)ncn2)cc1 [BSc4090, 4-((1E)-2-(6-(4-(dimethylamino)styryl)pyrimidine-4-yl)vinyl)-N,N-dimethylbenzenamine] | Aβ plaque |
| COc1ccc(/C=C/c2cnc(/C=C/c3ccc(OC)cc3)cn2)cc1 [BSc4354, 2,5-Bis(4-methoxystyryl)pyrazine] | Aβ in angiopathy; also recorded: Aβ plaque |
| Cn1cccc1/C=C/c1cc(/C=C/c2cccn2C)ncn1 [BSc4327, 4,6-Bis((E)-2-(1-methyl-1H-pyrrol-2-yl)vinyl)pyrimidine] | Aβ in angiopathy |
| Cn1cccc1/C=C/c1cnc(/C=C/c2cccn2C)cn1 [BSc4353, 2,5-Bis((E)-2-(1-methyl-1H-pyrrol-2-yl)vinyl)pyrazine] | Aβ in angiopathy; also recorded: Aβ plaque |

Each molecule was assayed on Tau fibril (assay: Staining of tissue sections with the dyes, fluorescence microscopy: Tau in hippocampus). Conditions: person, AD, DAPI filter.
Type: binding, human
Protocol: as §1, §2, §3, §4, §5, §6

| SMILES | Structure stained by the dye |
| --- | --- |
| CCN(CC)c1ccc2cc(-c3csc(NNC(=O)c4cccnc4)n3)c(=O)oc2c1 [BSc4007, N′-(4-(7-(diethylamino)-2-oxo-2H-chromen-3-yl)thiazol-2-yl)nicotinohydrazide] | Tau fibril |
| O=C(NCc1cccc(F)c1)Nc1ccc2nonc2c1 [BSc4138, 1-(Benzo[c][1,2,5]oxadiazol-5-yl)-3-(3-fluorobenzyl)urea] | Tau fibril |
